Legend:
SCC38 cells [1] = assay: Stereospecificity of the mitochondrial labeling, flow cytometry; type: cell-based, human; conditions: all the selected concentrations, 30 min incubation
Procedure: • Fig. 1. In vivo labeling of SCC38 cells with compound 4 at different concentrations (50, 100 and 500 nM). Scale bar: 10 µm • Fig. 2. Flow cytometry studies in SCC38 and HeLa cell lines labeled with compound 4 and Mito Tracker® Red. Histograms wherein fluorescence intensity vs number of events is represented for each of the staining times (5, 15 and 30 min) and control (Ctrl), for the SCC38 and HeLa cells and for each of the two markers. • Fig. 3. Absorption (A) and fluorescence (B) spectra, normalized to molar absorption and fluorescence quantum yield of probe 4 in different solvents; chloroform (green), acetone (black), acetonitrile (red), ethanol (blue) and water (gray). • Fig. 4. […] (A) Flow cytometry analysis of SCC38 cells incubated in the presence (+FCCP) or absence (-FCCP) of FCCP 60 µM for 3 h before staining with 20 nM of 4 or 0.5 nm of MitoTracker. The data represent the mean fluorescence intensity (MFI) of the stained cells. […] The graphs show the fluorescence profiles of the regions of interest indicated with white lines in the right-hand panels. […] The data represent the mean fluorescence intensity (MFI) of the stained cells (upper panels) and representative images of the cytometry profiles (lower panels). • Fig. 7. […] (B) The data represent the mean fluorescence intensity (MFI) of the labeled cells. […]

[2] = Stability in water: time evolution in D2O followed by 1H NMR (hydrolysis); type: physicochemical; conditions: 15 mM solution in D2O at 25 °C, read-out: t1/2 (hydrolysis) (converted)
Procedure: One of the critical factors that conditions the viability and applicability of functional dyes 3 and 4 as fluorescent mitochondrial probes is their stability in water, since these compounds contain two potentially labile B-O bonds linking the fluorophore with the carnitine substituent. This stability was determined analyzing the time evolution of 3 and 4 in a 15 mM solution in D2O at 25 °C using ^1H NMR. This technique makes it possible not only to define their stability, but also to identify the possible degradation products (Diagram 2). Both probes are hydrolyzed, generating free carnitine and the corresponding 4,4-dihydroxy-BODIPY derivatives 5 and 6. [drawing 8]
Compound 3 is quickly hydrolyzed (t1/2 = 10 min); however, the greater substitution of the tetramethylated derivative in 4 gives it greater stability (t1/2 = 6 h), which promotes its use as a fluorescent marker in live cells. Contrary to what might be believed, the generation of free carnitine and of the corresponding BODIPY derivatives 5 and 6 at physiological pH is, indeed, an advantage for its application in cell labels. Thus, (R)-carnitine is incorporated into the mitochondrial metabolism, while the boron of the hydrolyzed BODIPY can covalently bond to poly-hydroxilated molecules (for example, saccharides and glycoproteins), generating cyclic boronic esters. […]

[3] = Photophysical characterization: absorption and fluorescence spectra; type: physicochemical
Procedure: The photophysical characterization of probes 3 and 4 was carried out analyzing the corresponding absorption and fluorescence spectra in the UV-visible region of the spectrum.
Its photophysical behavior is dependent on the degree of substitution of the BODIPY, since the alkylation of the chromatophore induces sufficient steric hindrance to reduce the free rotation of the 8-mesityl group, a process that entails a significant reduction in fluorescence efficiency. Thus, probe 4 in water stands out for having a high molar absorption coefficient (3.8 × 10^4 M^-1 cm^-1 at 499 nm) and a very efficient fluorescence emission at 511 nm, with a quantum yield of up to 80%.

SCC38 cells [4] = assay: Co-localization by co-staining with MitoTracker Red, fluorescence microscopy of live cells; type: cell-based, human; conditions: co-staining, compound 4 50 nM, MitoTracker® Red 25 nM, 30 minutes
Procedure: (§1) The cell assays were carried out on two human cell lines: SCC38 and HeLa. The SCC38 line is derived from human laryngeal epidermoid carcinoma patients, while HeLa, the first human cell line established in culture, is derived from cervical cancer. The culture medium used for both cell lines was DMEM (Dulbecco's Modified Eagle's Medium) supplemented with 10% of fetal bovine serum (FBS), 100 U/mL of penicillin, 200 µg/mL of streptomycin, 100 µmol/L of non-essential amino acids and 2 mmol/L of glutamine. The cultures were incubated at 37 °C and 5% of CO2.
These cell lines were stained with the fluorescent probes synthesized following the following protocol: 30,000-50,000 SCC38 cells were plated on 24-well glass-bottomed plates and cultured to 70% confluence. The culture medium was then removed from the well and washed at least three times with DMEM medium without additives. Next, 1 mL of DMEM and the corresponding fluorescent compound was added to the well. The cells were incubated at 37 °C for 30 minutes, after which the medium was removed and newly washed with DMEM. Lastly, complete medium was added and the cells were observed under the microscope. Microscopy analysis was performed using a Zeiss Axio Observer Z1 microscope with AxioCam MRM and ApoTome 2 (Carl Zeiss, Germany) with different 40X 63X oil immersion objectives. The cells were also stained with MitoTracker® Red CMXRos (Thermo Fisher), following the manufacturer's instructions, with the aim of carrying out comparative studies with the new fluorescent markers synthesized herein. Initially, both compounds 3 and 4 were used at a concentration of 50 nM, and staining time was also 30 minutes.
In order to confirm the specificity of the mitochondrial labeling, co-localization studies were carried out by co-staining with the commercial mitochondrial marker MitoTracker® Red in the cell line. Compound 4 was used at a concentration of 50 nM and MitoTracker® Red at 25 nM. Both compounds were added simultaneously and incubated for 30 minutes.

HeLa = assay: Kinetics of cell labeling by flow cytometry; type: cell-based, human; conditions: 50 nM, staining times 5, 15 and 30 min
Procedure: as §1
(§2) The kinetics of cell labeling with 4 was studied by flow cytometry with the SCC38 and HeLa cell lines, using MitoTracker® Red as a control marker, both at a concentration of 50 nM. The staining times studied were 5, 15, 30 and 45 minutes. After staining, the medium was removed, washed with PBS, trypsinized and the pellet was resuspended in 500 µL of PBS and introduced in the cytometer after filtration. A Beckman Coulter Cytomics FC500 Flow Cytometry Analyzer was used (Scientific-Technical Services, Universidad de Oviedo). Part of the resuspended cells were also plated and observed under the microscope.

SCC38 = assay: Kinetics of cell labeling by flow cytometry; type: cell-based, human; conditions: SCC38, 50 nM, staining times 5, 15 and 30 min
Procedure: as §1, §2

SCC38 cells [5] = assay: Labeling in the presence of FCCP (depolarized mitochondrial membrane), flow cytometry; type: cell-based, human; conditions: 60 µM FCCP for 3 h at 37 °C before staining; 20 nM of 4 or 0.5 nM of MitoTracker
Procedure: • Fig. 1. In vivo labeling of SCC38 cells with compound 4 at different concentrations (50, 100 and 500 nM). Scale bar: 10 µm • Fig. 2. Flow cytometry studies in SCC38 and HeLa cell lines labeled with compound 4 and Mito Tracker® Red. Histograms wherein fluorescence intensity vs number of events is represented for each of the staining times (5, 15 and 30 min) and control (Ctrl), for the SCC38 and HeLa cells and for each of the two markers. • Fig. 3. Absorption (A) and fluorescence (B) spectra, normalized to molar absorption and fluorescence quantum yield of probe 4 in different solvents; chloroform (green), acetone (black), acetonitrile (red), ethanol (blue) and water (gray). • Fig. 4. […] (A) Flow cytometry analysis of SCC38 cells incubated in the presence (+FCCP) or absence (-FCCP) of FCCP 60 µM for 3 h before staining with 20 nM of 4 or 0.5 nm of MitoTracker. The data represent the mean fluorescence intensity (MFI) of the stained cells. (B) Microscopy analysis of SCC38 cells pretreated or not with FCCP before co-staining with 20 nM of 4 and 0.5 nm of MitoTracker. The graphs show the fluorescence profiles of the regions of interest indicated with white lines in the right-hand panels. Scale bars: 10 µm). • Fig. 5. […] The data represent the mean fluorescence intensity (MFI) of the stained cells (upper panels) and representative images of the cytometry profiles (lower panels). • Fig. 7. […] (B) The data represent the mean fluorescence intensity (MFI) of the labeled cells.
The labeling was analyzed by flow cytometry in the presence of carbonyl cyanide-p-(trifluoromethoxy)phenylhydrazone (FCCP), a protonophore used to reduce the mitochondrial membrane potential (ΔΨm) through depolarization of the mitochondrial membrane. […] Indeed, the suppression of dye-mitochondria electrostatic attraction as a passive labeling mechanism reduces the concentration of the dye in the cell organelle and, thus, the probability and extent of the fluorescence deactivation processes, with the ensuing increase in their efficiency. […]

SCC38 cells [6] = assay: Inhibition of mitochondrial staining by (R)-palmitoylcarnitine (CACT substrate), flow cytometry; type: cell-based, human; conditions: co-incubation, probe 50 nm, (R)-palmitoylcarnitine 100, 250 and 500 nM
Procedure: The SCC38 cells were co-incubated with the indicated concentrations of (R)-palmitoylcarnitine and 50 nM of 4 (A) or 50 nM of MitoTracker (B) before analyzing by flow cytometry. The data represent the mean fluorescence intensity (MFI) of the stained cells (upper panels) and representative images of the cytometry profiles (lower panels). • Fig. 7.
To test if CACT was in fact involved in the channeling of 4 to the mitochondrial matrix, we firstly studied the effect of (R)-(+)-palmitoylcarnitine, a natural CACT substrate, in cell labeling by 4.

**Q.** With CC1=CC(C)=[N+]2C1=C(c1c(C)cc(C)cc1C)c1c(C)cc(C)n1[B-]21OC(=O)C[C@@H](C[N+](C)(C)C)O1 (stereo partly drawn) [(S)-4] as the compound, how does the “fluorescence intensity compared with 4” value (SCC38 cells [1]) read?
**A.** considerably lower

**Q.** Which half-life at 15000 µM [2] does the source give for Cc1cc(C)c(C2=C3C=CC=[N+]3[B-]3(OC(=O)C[C@H](C[N+](C)(C)C)O3)n3cccc32)c(C)c1 (stereo partly shown) [Compound 3] here?
**A.** 10 min

**Q.** What about the “kfl: Radiative decay constant” value ([3]; Water) of the same compound?
**A.** 0.66 10^8s^- 1

**Q.** And the “knr: Non-Radiative decay constant” value ([3]; Water)?
**A.** 1.00 10^8s^- 1

**Q.** And the “Δv: Stokes shift” value ([3]; Water)?
**A.** 542 cm⁻¹

**Q.** And the “εmax: Molar extinction coefficient at the absorption peak” value ([3]; Water)?
**A.** 4.1 × 10^4 (M^-1 cm^- 1)

**Q.** What about the “λab: Absorption peak wavelength” value ([3]; Water) of the same compound?
**A.** 501 nm

**Q.** What about the “τ: Fluorescence lifetime” value ([3]; Water) of the same compound?
**A.** 6.00 ns

**Q.** What about the “λfl: Fluorescence peak wavelength” value ([3]; Water, excitation at 490 nm) of the same compound?
**A.** 515 nm

**Q.** And the “φf: Quantum yield” value ([3]; Water, reference PM567 in ethanol)?
**A.** 0.40

**Q.** And the “tendency towards H- or J- type aggregation” value ([3]; concentrations as high as 10^-4 M)?
**A.** not exhibit any tendency towards H- or J- type aggregation

**Q.** With ClCc1ccc(C2=c3cc4c5c(c3Oc3c2cc2c6c3CCCN6CCC2)CCC[N+]=5CCC4)cc1 [MitoTracker® Red, reference compound] as the compound, how does the “location of the stain in the mitochondria” value (SCC38 cells [4]) read?
**A.** concentrated along the edges of the mitochondria

**Q.** What about the “change of staining intensity with incubation time” value (HeLa) of the same compound?
**A.** barely varied upon increasing incubation time

**Q.** What about the “change of staining intensity with incubation time” value (SCC38) of the same compound?
**A.** barely varied upon increasing incubation time

**Q.** What about the “mitochondrial fluorescence of cells treated with FCCP” value (SCC38 cells [5]) of the same compound?
**A.** highly attenuated mitochondrial fluorescence

**Q.** And the “effect of (R)-palmitoylcarnitine on fluorescence intensity” value (SCC38 cells [6])?
**A.** only a slight increase of fluorescence

Source: patent EP3650451A1, “COMPOUNDS AND THEIR USES AS FLUORESCENT PROBES” (Consejo Superior de Investigaciones Cientificas, priority 2017, dated 2019)
